Data: patent publication US20210000988A1, “PHARMACEUTICAL COMPOSITION CONTAINING 211AT-LABELED AMINO ACID DERIVATIVE, AND METHOD FOR PRODUCING SAID PHARMACEUTICAL COMPOSITION” (OSAKA UNIVERSITY, priority 2018, published 2021)

Assays:
[1] = tested on: human pancreatic cancer cell line (PANC-1); test: Cellular uptake / accumulation in cancer cells (radiation dose remaining in the cells); type: cell-based
Protocol: A human pancreatic cancer cell line (PANC-1) was treated with ^211At-AAMT and cultured for a predetermined time. Then, the cells were washed to remove unincorporated ^211At-AAMT. The cellular uptake of ^211At-AAMT was measured from the radiation dose remaining in the cells.
Further, an effect of ascorbic acid on the cellular accumulation of ^211At-AAMT was also examined. The measurement result of the radiation dose in the human pancreatic cancer cell line in the absence and presence of ascorbic acid is shown in FIG. 5.

[2] = tested on: human pancreatic cancer cell line (PANC-1); test: Cell-killing effect (cell survival rate); type: cell-based; conditions: PANC-1 cells
Text: 4. Examination of cell-killing effect of ^211At-AAMT A cell survival rate of the human pancreatic cancer cell line (PANC-1) administered with ^211At-AAMT under the same conditions as in Example 3 is shown in FIG. 6. […] On the other hand, the cellular uptake of ^211At-AAMT was reduced in the presence of the inhibitor BCH or methyltyrosine.

[3] = In vitro stability by thin-layer chromatography (TLC), with and without sodium ascorbate; type: physicochemical
Text: The stability of ^211At-AAMT synthesized in Example 1 was compared in the presence and absence of sodium ascorbate using thin-layer chromatography (TLC).

[4] = In vivo stability: TLC of blood and urine after intravenous injection in normal rats; conditions: ascorbic acid 1% final concentration, after one hour
Protocol: ^211At-AAMT to which ascorbic acid was added at a final concentration of 1% was intravenously injected in normal rats, and, after one hour, blood and urine were collected and analyzed by thin-layer chromatography (TLC). As a thin layer plate, silica gel G60F254 (Merck KGaA) was used, and, as a development solvent, a mixture of butanol:water:acetic acid (4:1:1) was used (Nacalai Tesque, Inc.). The thin layer plate after development was analyzed by using a bioimaging analysis apparatus (Typhoon 7000, GE Healthcare) (FIG. 2). […] That is, it was shown that ^211At-AAMT to which ascorbic acid was added could stably exist in the living body without being metabolized or degraded.

[5] = Effect of ascorbic acid on biodistribution in normal mice (organ radioactivity, gamma counter); type: in vivo, ddY mice; conditions: intravenous, one hour, 1% ascorbic acid addition group compared with ascorbic acid free group
Text: Next, an effect of ascorbic acid on biodistribution of ^211At-AAMT in the mouse body was compared. ddY mice (male, 5 weeks old) purchased from Japan SLC, Inc. were used after being acclimated for one week (6 weeks old at the time of experiment). ^211At-AAMT with 1% ascorbic acid or without ascorbic acid was intravenously injected in normal mice (N=3), and the mice were dissected after one hour. The organs were all put in polyethylene bags with zipper (A-4, 0.04 mm, SEISANNIPPONSHA Ltd.), and radioactivity of the organs was measured using Wizard^2 gamma counter (PerkinElmer).

[6] = tested on: human pancreatic cancer cell line (PANC-1); test: Administration to cancer-bearing mouse (tumor size and body weight); type: in vivo; conditions: PANC-1 cancer-bearing mouse, intravenous, 0.6 MBq per mouse, 7 days after administration
Text: A cancer-bearing mouse created by using the human pancreatic cancer cell line (PANC-1) was intravenously administered with ^211At-AAMT at a dose of 0.6 MBq per mouse. A change in the tumor size caused by the administration is shown in FIG. 8(A), while a change in the body weight of the cancer-bearing mouse is shown in FIG. 8(B).

[7] = Image analysis of in vivo localization in the normal rat using a gamma camera
[8] = tested on: human pancreas cell line PANC-1; test: SPECT imaging in pancreatic cancer (PANC-1) transplanted mice; type: in vivo, Balb/c-nu/nu mice; conditions: PANC-1 transplanted mice (two animals), intravenous, 1 MBq, with 1% ascorbic acid, after 10 minutes
Protocol: Balb/c-nu/nu mice (female, 5 weeks old) purchased from Japan SLC, Inc. were acclimated in a breeding space for one week. A human pancreas cell line PANC-1 (RIKEN cell bank), which was maintained in an RPMI 1640 medium (Sigma-Aldrich) supplemented with 10% fetal bovine serum (Gibco) and 1% antibiotics (100×, FUJIFILM Wako Pure Chemical Corp.), was adjusted to a concentration of 5×10^6 cells/100 μL. Subsequently, the cells were mixed with Matrigel (Growth Factor Reduced, BD) in a 1:1 ratio, and the mixture was transplanted to a subcutaneous region of the hinder back of a mouse using a syringe (FN syringe 27G, Terumo Corp.). Subsequently, after one-month follow-up observation, the mouse having a sufficiently large tumor size was used in the experiment. These pancreatic cancer transplanted mice (animal 1: 25.5 g, animal 2: 30.2 g) were intravenously injected with ^211At-AAMT (with 1% ascorbic acid, at a dose of 1 MBq each), and SPECT imaging was performed after 10 minutes. Imaging was performed using a gamma camera E-Cam (Siemens) (imaging time: 10 minutes, collimator: low energy all purpose, pixel size: 1.2 mm×1.2 mm, matrix: 256×256, zoom: 2-fold, energy window: 79±20%).

[9] = SPECT imaging in normal rats; type: in vivo, rats (Wister); conditions: intravenous, 1 MBq, without ascorbic acid, 20 minutes to 1 hour
Protocol: Normal rats (Wister, 3 months old, male, 3 animals, body weight of 289.8±5.5 g) were intravenously injected with ^211At-AAMT (without ascorbic acid, 1 MBq), and SPECT imaging was performed after from 20 minutes to 1 hour. Imaging was performed using a gamma camera E-Cam (Siemens) (imaging time: 20 minutes, collimator: low energy all purpose, pixel size: 2.4 mm×2.4 mm×2.4 mm (SPECT), matrix: 128×128).

Melanoma cells B16F10 = test: Treatment effect on melanoma metastasis to lung (nodule count and body weight); type: in vivo, C57BL/6 mice; conditions: B16F10 transplanted mice, intravenous
Text: C57BL/6 mice (female, 5 weeks old) purchased from Japan SLC, Inc. were used in the experiment after being acclimated in a breeding space for one week. Melanoma cells B16F10 (a high lung-metastatic cell line cloned from B16, RIKEN cell bank) were maintained in a D-MEM medium (high glucose, Sigma-Aldrich) supplemented with 10% fetal bovine serum (Gibco) and 1% antibiotics (100×, FUJIFILM Wako Pure Chemical Corp.). These cells in an amount of 2×10^5 cells were intravenously transplanted in each mouse. On the following day, the mice (N=5) was intravenously injected with ^211At-AAMT (with 1% ascorbic acid) at a dose of 0.0 MBq (control group), 0.1 MBq, or 1 MBq. Fourteen days later, the mice were dissected, and the number of nodules spread to the lung was visually counted. The results of the number of the nodules and a change in the body weight thus obtained were shown in FIG. 11 and FIG. 12, respectively.

Compound | uptake of ^211At-AAMT under competition with the inhibitor ([1]; PANC-1 cells, competitor added (Comparative example)) | cell survival rate with ^211At-AAMT in the presence of the inhibitor ([2]; competitor present) | time in which almost all of the compound was degraded ([3]; in the absence of sodium ascorbate) | stability over time ([3]; in the presence of sodium ascorbate) | radioactive species detected in blood and urine [4] | accumulation in the stomach and the kidney [5] | time at which uptake reached the maximum value ([1]; PANC-1 cells) | increase of cellular uptake in the cancer cells by addition of ascorbic acid ([1]; PANC-1 cells, with versus without ascorbic acid) | accumulation in PANC-1 on addition of ascorbic acid ([1]; ascorbic acid 0.1% versus absence) | cell-killing effect (cell survival rate) ([2]; same conditions as Example 3) | cancer cell-killing activity on addition of ascorbic acid ([2]; with versus without ascorbic acid) | change in body weight [6] | change in tumor size [6] | excretion [7] | in vivo localization of radioactivity [7] | visualization of the thyroid (SPECT) [8] | visualization of the tumor (SPECT) [8] | accumulation of radioactivity (SPECT) [9] | body weight change (Melanoma cells B16F10; 0.1 MBq or 1 MBq with 1% ascorbic acid versus control group) | number of melanoma nodules in the lung (Melanoma cells B16F10; 0.1 MBq or 1 MBq with 1% ascorbic acid versus control, fourteen days later)
NC1(C(=O)O)CC2CCC1C2 (centres unmarked) [BCH, 2-aminobicyclo[2.2.1]heptane-2-carboxylic acid, reference compound] | reduced | a significant reduction in the cell survival rate was not observed |  |  |  |  |  |  |  |  |  |  |  |  |  |  |  |  |  | 
CC(N)(Cc1ccc(O)c([211At])c1)C(=O)O (centres unmarked) [^211At-AAMT] |  |  | about 40 minutes | could stably exist even after the lapse of seven or more hours | only ^211At-AAMT was detected in both the blood and the urine, but free ^211At was not observed | significantly reduced | about 10 minutes | increased about four times | significantly increased | nearly all of the cancer cells could be killed | increased | a substantial reduction of the body weight was not observed | a regression effect of the tumor was obtained | quick excretion of ^211At-AAMT by the kidney | accumulation of the radioactivity was observed in the kidney and its surrounding organs | the thyroid was not visualized | the tumors were clearly visualized in both cases | accumulation of the radioactivity was observed in the thyroid and the stomach in all animals | no difference in the body weight change | decreased more in the group with more doses
